Test results reported in patent US20020028938A1, “Prostaglandin endoperoxide H synthase biosynthesis inhibitors” (priority 1997, published 2002).

Assays:
[1] = molecular target: T1, recombinant human Cox-1 (r-hu Cox1) (Homo sapiens, UniProt P23219); assay: Recombinant human PGHS-1 enzyme assay (RHUCX1); assay type: biochemical; settings: for inhibition at 10 µM / inhibition at 100 µM: read-out: RHUCX1 % Inh. at Dose
T1 construct: made in house; host or cells: baculovirus/Sf9 insect cells (microsomes)
Procedure, shortened: (§1)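 PGE2 by EIA (optical density) → % inhibition vs control-group mean → IC50 from linear regression.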

[2] = molecular target: T2, recombinant human Cox-2 (r-hu Cox-2) (Homo sapiens, UniProt P35354); assay: Recombinant human PGHS-2 enzyme assay (RHUCX2); assay type: biochemical; settings: for IC50: read-out: RHUCX2 IC50 (parenthetical value); for inhibition at 0.01 µM / inhibition at 0.1 µM / inhibition at 1 µM: read-out: RHUCX2 % Inh. at Dose
T2 construct: made in house; host or cells: baculovirus/Sf9 insect cells (microsomes)
T2 sequence (P35354 18-604): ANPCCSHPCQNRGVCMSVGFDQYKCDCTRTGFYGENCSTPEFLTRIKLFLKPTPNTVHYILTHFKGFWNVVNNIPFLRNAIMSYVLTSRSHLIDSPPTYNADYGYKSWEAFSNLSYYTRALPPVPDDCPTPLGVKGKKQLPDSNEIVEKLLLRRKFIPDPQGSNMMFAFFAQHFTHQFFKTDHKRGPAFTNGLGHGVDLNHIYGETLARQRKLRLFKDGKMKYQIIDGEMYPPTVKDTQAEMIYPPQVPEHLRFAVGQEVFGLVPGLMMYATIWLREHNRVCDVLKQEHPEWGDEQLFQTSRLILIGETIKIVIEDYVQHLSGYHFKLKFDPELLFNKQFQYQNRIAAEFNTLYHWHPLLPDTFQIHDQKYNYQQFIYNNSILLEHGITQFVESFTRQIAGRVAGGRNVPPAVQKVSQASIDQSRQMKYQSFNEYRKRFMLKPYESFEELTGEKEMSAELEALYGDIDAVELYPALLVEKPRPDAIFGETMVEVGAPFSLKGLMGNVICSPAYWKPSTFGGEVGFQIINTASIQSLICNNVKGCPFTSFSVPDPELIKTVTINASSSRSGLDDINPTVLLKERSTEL
Procedure, shortened: as §1

[3] = molecular target: T3, human amnionic whole cell cyclooxygenase-2 (WISH cells) (Homo sapiens, UniProt P35354); assay: IL-1β induced PGE2 production in WISH cells; assay type: cell-based; settings: for IC50: read-out: Wish IC50 (parenthetical value)
T3 construct: endogenous in cells; host or cells: human amnionic WISH cells, induced with IL-1beta
T3 sequence (P35354 18-604): T2 sequence (P35354 18-604)
Procedure, shortened: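 PGE2 was quantified by enzyme immunoassay (optical density read) against standards made up in the matching medium. WISH cells at 80% confluence, washed and placed in serum-free Neuman-Tytell medium, received 5 ng/ml IL-1β plus test compound or DMSO vehicle (0.01% v/v).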

[4] = tested on: air pouch prostaglandin biosynthesis (Cox-2); assay: Carrageenan induced air pouch prostaglandin biosynthesis model (CAP); assay type: in vivo, rat; settings: for CAP % Inhib. @ 3 mpk / inhibition in vivo at 3 mg/kg: rat, 3 mpk; for inhibition in vivo at 3 mg/kg: 4 h, read-out: CAP % Inhib. @ 3 mpk
Procedure: To compare the mean responses of the treatment groups, analysis of variance was applied. Percent inhibition values were determined by comparing the individual treatment mean values to the mean of the control group. Linear regression was used to estimate IC50's/ED50's in appropriate assays.
Carrageenan induced air pouch prostaglandin biosynthesis model (CAP) Air pouches are formed in the backs of male Sprague Dawley rats by injecting 20 mL of sterile air on day 0. Three days later the pouch was reinflated with an additional 10 mL of sterile air. On day 7, 1 mL of saline containing 0.2 % lambda carrageenan (Sigma Chemical Co.) is injected into the pouch to induce the inflammatory reaction that is characterized by the release of prostaglandins. Test compounds are dosed at 0.1 to 10 mg/kg 30 minutes prior to carrageenan. Four hours after the carrageenan injection the pouch is lavaged and levels of prostaglandins are determined by enzyme immuno-assay using commercially available kits. […] Values for Cox-2 inhibition that are parenthetical indicate ED50 values.

[5] = molecular target: T4, Human Whole Platelet Cyclooxygenase-1 (Homo sapiens, UniProt P23219); assay: Human Whole Platelet Cyclooxygenase-1 assay (HWPX); assay type: cell-based; settings: read-out: HWPX IC50 (parenthetical value)
T4 construct: from tissue; host or cells: human blood: isolated platelets (A4) or heparinised whole blood (A9)
Procedure, shortened: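 Thromboxane production was measured with a commercial kit after stimulation of washed human platelets (ACD-anticoagulated volunteer blood) by 8.8 μM final A23187 for 10 min. Test compounds were added 10 min before stimulus; cold 6 mM EDTA terminated the reaction.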

T1 sequence (P23219 24-599): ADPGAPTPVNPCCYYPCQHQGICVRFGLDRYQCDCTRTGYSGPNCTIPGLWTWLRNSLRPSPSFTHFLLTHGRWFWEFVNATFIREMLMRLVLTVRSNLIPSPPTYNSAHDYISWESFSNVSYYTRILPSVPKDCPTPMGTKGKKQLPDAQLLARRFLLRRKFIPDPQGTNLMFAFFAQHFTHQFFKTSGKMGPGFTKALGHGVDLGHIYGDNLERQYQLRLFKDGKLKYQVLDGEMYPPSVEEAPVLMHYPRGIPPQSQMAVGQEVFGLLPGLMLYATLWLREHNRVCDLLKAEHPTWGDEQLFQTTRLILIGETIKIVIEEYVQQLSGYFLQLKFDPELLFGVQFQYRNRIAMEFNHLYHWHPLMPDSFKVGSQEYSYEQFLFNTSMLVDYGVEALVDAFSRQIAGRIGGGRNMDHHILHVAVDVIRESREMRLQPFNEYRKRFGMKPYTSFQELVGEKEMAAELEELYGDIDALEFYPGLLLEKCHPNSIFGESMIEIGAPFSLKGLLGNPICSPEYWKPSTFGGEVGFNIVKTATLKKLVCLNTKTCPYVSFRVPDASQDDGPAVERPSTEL
T4 sequence (P23219 24-599): as above

Molecule | IC50 [3] | inhibition at 100 µM ([1]; 100 μM) | IC50 [2] | inhibition in vivo at 3 mg/kg [4] | melting point | further results
2-(2,3,3-Trifluorophenyl)-4-(4-fluorophenyl)-5-[4-(aminosulfonyl)phenyl]-3(2H)-pyridazinone [Example 450] | 50 nM | – | – | – | – | RHUCX1 % Inh. at Dose (μM) ([1]; 100 μM): 29 @ 100%; RHUCX2 % Inh. at Dose (μM) ([2]; 0.01 μM): 22 @ 0.01%; RHUCX2 % Inh. at Dose (μM) ([2]; 0.1 μM): 40 @ 0.1%; RHUCX2 % Inh. at Dose (μM) ([2]; 1 μM): 87 @ 1%; CAP % Inhib. @ 3 mpk [4]: 86%
NS(=O)(=O)c1ccc(-c2cnn(CC=C(F)F)c(=O)c2-c2ccc(F)cc2)cc1 [Example 143, 2-(3,3-Difluoro-2-propenyl)-4-(4-fluorophenyl)-5-[4-(aminosulfonyl)phenyl]-3(2H)-pyridazinone] | 7 nM | 62% | 76 nM | 59% | 191 to 194 °C | inhibition at 10 µM ([1]; 10 μM): 43%
CS(=O)(=O)c1ccc(-c2cnn(-c3ccc(F)c(F)c3)c(=O)c2Cc2cccc(F)c2)cc1 [Example 243, 2-(3,4-Difluorophenyl)-4-(3-fluorobenzyl)-5-[4-(methylsulfonyl)phenyl]-3(2H)-pyridazinone] | 30 nM | – | – | 7% | 161 to 163 °C | –
Cc1cc(-c2c(-c3ccc(S(C)(=O)=O)cc3)cnn(-c3ccc(F)cc3)c2=O)ccc1F [Example 245, 2-(4-Fluorophenyl)-4-(4-fluoro-3-methylphenyl)-5-[4-(methylsulfonyl)phenyl]-3(2H)-pyridazinone] | 46 nM | 9% | 1380 nM | 47% | 245 to 247 °C | –
CS(=O)(=O)c1ccc(-c2cnn(-c3ccc(F)c(Cl)c3)c(=O)c2C2CCCCC2)cc1 [Example 246, 2-(3-Chloro-4-fluorophenyl)-4-cyclohexyl-5-[4-(methylsulfonl)phenyl]-3(2H)-pyridazinone] | 20 nM | 0% | 54 nM | 48% | – | –
CC(C)CCc1c(-c2ccc(S(C)(=O)=O)cc2)cnn(-c2ccc(F)c(Cl)c2)c1=O [Example 257, 2-(3-Chloro-4-fluorophenyl)-4-(3-methylbutyl)-5-[4-(methylsulfonyl)phenyl]-3(2H)-pyridazinone] | – | 0% | 40 nM | 60% | 55 to 58 °C | –
CC(C)COc1c(-c2ccc(S(C)(=O)=O)cc2)cnn(-c2cccc(Cl)c2)c1=O [Example 335, 2-(3-Chlorophenyl)-4-(2-methylpropoxy)-5-[4-(methylsulfonyl)phenyl]-3(2H)-pyridazinone] | 23 nM | 5% | 1 nM | 45% | 166 to 169 °C | –
CC(C)COc1c(-c2ccc(S(C)(=O)=O)cc2)cnn(-c2ccc(F)c(F)c2)c1=O [Example 346, 2-(3,4-Difluorophenyl)-4-(2-methylpropoxy)-5-[4-(methylsulfonyl)phenyl]-3(2H)-pyridazinone] | – | 14% | – | 49.5% | 116 to 117 °C | inhibition at 0.01 µM ([2]; 0.01 μM): 48%; inhibition at 0.1 µM ([2]; 0.1 μM): 76%; inhibition at 1 µM ([2]; 1 μM): 94%
CCC(C)CCOc1c(-c2ccc(S(C)(=O)=O)cc2)cnn(-c2ccc(F)c(F)c2)c1=O (stereo not shown) [Example 351, 2-(3,4-Difluorophenyl)-4-(3-methylpentyloxy)-5-[4-(methylsulfonyl)phenyl]-3(2H)-pyridazinone] | – | 3% | – | 0% | 100 to 102 °C | inhibition at 0.01 µM ([2]; 0.01 μM): 42%; inhibition at 0.1 µM ([2]; 0.1 μM): 63%; inhibition at 1 µM ([2]; 1 μM): 91%
CC(C)=CCCOc1c(-c2ccc(S(C)(=O)=O)cc2)cnn(-c2ccc(F)c(F)c2)c1=O [Example 352, 2-(3,4-Difluorophenyl)-4-(4-methyl-3-penten-1-yloxy)-5-[4-(methylsulfonyl)phenyl]-5-3(2H)-pyridazinone] | – | 0% | 154 nM | 89% | 88 to 90 °C | IC50 [5]: 5500 nM; ED50 ([4]; Rattus norvegicus): 5 mg/kg
COC(C)CCOc1c(-c2ccc(S(C)(=O)=O)cc2)cnn(-c2ccc(F)c(F)c2)c1=O (stereo not shown) [Example 353, 2-(3,4-Difluorophenyl)-4-[3-(methoxy)butoxy]-5-[4-(methylsulfonyl)phenyl]-3(2H)-pyridazinone] | – | 6% | 826 nM | 0% | 99 to 101 °C | –
Cc1cc(-c2c(-c3ccc(S(N)(=O)=O)cc3)cnn(-c3ccc(F)cc3)c2=O)ccc1F [Example 390] | – | – | – | – | – | RHUCX1 % Inh. at Dose (μM) ([1]; 1 μM): 45 @ 1%; RHUCX1 % Inh. at Dose (μM) ([1]; 10 μM): 88 @ 10%; RHUCX2 % Inh. at Dose (μM) ([2]; 0.1 μM): 60 @ 0.1%; RHUCX2 % Inh. at Dose (μM) ([2]; 1 μM): 72 @ 1%; RHUCX2 % Inh. at Dose (μM) ([2]; 10 μM): 99 @ 10%; CAP % Inhib. @ 3 mpk [4]: 60%
CC(C)CCOc1c(-c2ccc(S(N)(=O)=O)cc2)cnn(-c2cccc(Cl)c2)c1=O [Example 394, 2-(3-Chlorophenyl)-4-(3-methylbutoxy)-5-[4-(aminosulfonyl)phenyl]-3(2H)-pyridazinone] | 19 nM | 86% | – | 70% | 137 to 139 °C | inhibition at 10 µM ([1]; 10 μM): 38%; inhibition at 0.01 µM ([2]; 0.01 μM): 20%; inhibition at 0.1 µM ([2]; 0.1 μM): 64%; inhibition at 1 µM ([2]; 1 μM): 94%
CC(C)COc1c(-c2ccc(S(N)(=O)=O)cc2)cnn(-c2cccc(Cl)c2)c1=O [Example 395, 2-(3-Chlorophenyl)-4-(2-methylpropoxy)-5-[4-(aminosulfonyl)phenyl]-3(2H)-pyridazinone] | – | 91% | – | 71% | 80 to 85 °C | inhibition at 10 µM ([1]; 10 μM): 35%; inhibition at 0.01 µM ([2]; 0.01 μM): 34%; inhibition at 0.1 µM ([2]; 0.1 μM): 77%; inhibition at 1 µM ([2]; 1 μM): 93%
CC(C)CCc1c(-c2ccc(S(N)(=O)=O)cc2)cnn(-c2ccc(F)c(Cl)c2)c1=O [Example 405, 2-(3-Chloro-4-fluorophenyl)-4-(3-methylbutyl)-5-[4-(aminosulfonyl)phenyl]-3(2H)-pyridazinone] | – | 90% | 198 nM | 53% | 154 to 156 °C | inhibition at 10 µM ([1]; 10 μM): 61%
NS(=O)(=O)c1ccc(-c2cnn(-c3ccc(F)c(F)c3)c(=O)c2Oc2ccc(F)cc2)cc1F [Example 407] | – | 32% | 170 nM | 61% | 224 to 226 °C | –
CS(=O)(=O)c1ccc(-c2cnn(-c3cccc(Cl)c3)c(=O)c2OCCC2CC2)cc1 [Example 419, 2-(3-Chlorophenyl)-4-(2-cyclopropane-1-ethoxy)-5-[4-(methylsulfonyl)phenyl]-3(2H)-pyridazinone] | – | 12% | 100 nM | 48% | 124 to 128 °C | –
CC(C)(O)COc1c(-c2ccc(S(C)(=O)=O)cc2)cnn(-c2ccc(F)c(F)c2)c1=O [Example 452, 2-(3,4-Difluorophenyl)-4-(2-hydroxy-2-methyl-1-propoxy)-5-[4-(methylsulfonyl)phenyl]-3(2H)-pyrridazinone] | – | – | – | – | – | RHUCX1 % Inh. at Dose (μM) ([1]; 100 μM): 14 @ 100%; RHUCX2 % Inh. at Dose (μM) ([2]; 1 μM): 15 @ 1%; Wish % Inhib. at Dose (μM) ([3]; 0.1 μM): 1 @ 0.1%; Wish % Inhib. at Dose (μM) ([3]; 1 μM): 56 @ 1%; CAP % Inhib. @ 3 mpk [4]: 71%
